Data taken from ChEMBL document CHEMBL1201862, “PubChem BioAssay data set” (2004).
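48-hour exposure; five concentrations; linearly interpolated endpoints. Here, GI50 denotes the concentration required for 50% inhibition of growth.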 Activity calls are given as the source filed them. Rule as the data show it: active = GI50 up to about 1.1 µM and inactive = higher.

Experiments:
Test in all cases: DTP human tumour cell line panel, 48 h
[1] = test system: 786-0
[2] = test system: A549
[3] = test system: CCRF-CEM
[4] = test system: HCC 2998
[5] = test system: HCT-15
[6] = test system: NCI-H23
[7] = test system: NCI-H460
[8] = test system: OVCAR-3
[9] = test system: OVCAR-4
[10] = test system: RPMI-8226
[11] = test system: RXF 393
[12] = test system: SF-295
[13] = test system: SF-539
[14] = test system: SNB-19
[15] = test system: SNB-75
[16] = test system: SR
[17] = test system: UACC-62

| Structure (SMILES) | GI50 [1] | GI50 [2] | GI50 [3] | GI50 [4] | GI50 [5] | GI50 [6] | GI50 [7] | GI50 [8] | GI50 [9] | GI50 [10] | GI50 [11] | GI50 [12] | GI50 [13] | GI50 [14] | GI50 [15] | GI50 [16] | GI50 [17] |
| --- | --- | --- | --- | --- | --- | --- | --- | --- | --- | --- | --- | --- | --- | --- | --- | --- | --- |
| COC(=O)[C@H](Cc1ccccc1)NC(=O)/C(=C/C(C)C)NC(=O)[C@H](CCSC)NC=O | > 100 µM (inactive) | > 100 µM (inactive) | > 100 µM (inactive) | > 100 µM (inactive) | > 100 µM | > 100 µM (inactive) | > 100 µM (inactive) | > 100 µM (inactive) | > 100 µM (inactive) | > 100 µM (inactive) | > 100 µM (inactive) | > 100 µM (inactive) | > 100 µM (inactive) | > 100 µM (inactive) | > 100 µM (inactive) | > 100 µM (inactive) | > 100 µM (inactive) |
| CN1C/C(=C\c2ccc(C(=O)O)cc2)C(=O)/C(=C/c2ccc(C(=O)O)cc2)C1 | > 100 µM (inactive) | > 100 µM (inactive) | > 100 µM (inactive) | > 100 µM (inactive) | > 100 µM | > 100 µM (inactive) | > 100 µM (inactive) | > 100 µM (inactive) | > 100 µM (inactive) | > 100 µM (inactive) | > 100 µM (inactive) | > 100 µM (inactive) | > 100 µM (inactive) |  | > 100 µM (inactive) | > 100 µM (inactive) | > 100 µM (inactive) |
| O=C(O)C(Cl)(Cl)Cl |  | > 100 µM (inactive) | > 100 µM (inactive) | > 100 µM (inactive) | > 100 µM | > 100 µM (inactive) | > 100 µM (inactive) |  | > 100 µM (inactive) | > 100 µM (inactive) | > 100 µM (inactive) | > 100 µM (inactive) | > 100 µM (inactive) | > 100 µM (inactive) | 63.1 µM (inactive) | > 100 µM (inactive) |  |
| C/N=c1\ss/c(=N\C(=S)N(C)C)n1-c1ccccc1 | 38.3 µM (inactive) | > 100 µM (inactive) | > 100 µM (inactive) | > 100 µM (inactive) | > 100 µM | > 68.1 µM (inactive) | > 100 µM (inactive) | > 100 µM (inactive) | > 100 µM (inactive) | > 100 µM (inactive) | > 48.2 µM (inactive) | > 75.5 µM (inactive) | 31 µM (inactive) | > 52.7 µM (inactive) | 17.3 µM (inactive) | > 100 µM (inactive) | > 22.9 µM (inactive) |
| O=c1cc2ccccc2nn1Cc1ccccc1Cl | > 100 µM (inactive) | > 100 µM (inactive) | > 100 µM (inactive) | > 100 µM (inactive) | > 100 µM | 88.9 µM (inactive) | > 100 µM (inactive) | 94.6 µM (inactive) | > 100 µM (inactive) | 92.5 µM (inactive) |  | > 100 µM (inactive) | > 100 µM (inactive) | > 100 µM (inactive) | 25.3 µM (inactive) |  | 89.7 µM (inactive) |
| S=C(N/N=C/c1ccccc1)NC12CC3CC(CC(C3)C1)C2 | 56.1 µM (inactive) | 27.8 µM (inactive) | 19.6 µM (inactive) |  | 47.8 µM | 55.8 µM (inactive) | 39.5 µM (inactive) | 27.2 µM (inactive) | 42.2 µM (inactive) | 22 µM (inactive) | 23.7 µM (inactive) | 41 µM (inactive) | 12.4 µM (inactive) | > 100 µM (inactive) |  | 18.2 µM (inactive) | 27.5 µM (inactive) |
| COC(=O)c1ccc(/N=N/N(C)COc2ccc(Br)cc2)cc1 |  | 66.7 µM (inactive) | 34 µM (inactive) | 31.7 µM (inactive) | > 89.7 µM | > 68.5 µM (inactive) | 40.6 µM (inactive) | > 100 µM (inactive) | 54.2 µM (inactive) | 24.5 µM (inactive) | 80.4 µM (inactive) | > 60.8 µM (inactive) | > 100 µM (inactive) | > 100 µM (inactive) | 57.3 µM (inactive) |  | 60 µM (inactive) |
| O=C(Cc1ccccc1)NN1C(=O)C(Cl)C1c1ccc(Cl)cc1 (stereo not drawn) | > 100 µM (inactive) | > 100 µM (inactive) | > 100 µM (inactive) | > 100 µM (inactive) | > 100 µM | > 100 µM (inactive) | > 100 µM (inactive) | > 100 µM (inactive) | > 100 µM (inactive) | 51.4 µM (inactive) | > 100 µM (inactive) | > 100 µM (inactive) |  | 69.8 µM (inactive) | 84.5 µM (inactive) | 24.1 µM (inactive) | > 100 µM (inactive) |
| CC(=O)OCCOCNC(=S)N/N=C(\C)c1cnc2ccccc2n1 | 39.7 µM (inactive) | 26.6 µM (inactive) | 7.46 µM (inactive) | 32.7 µM (inactive) | 34 µM | 72.8 µM (inactive) | 27 µM (inactive) | 16.8 µM (inactive) | 57.1 µM (inactive) | 47.8 µM (inactive) | 33 µM (inactive) | 57.9 µM (inactive) | 55.8 µM (inactive) | 99.3 µM (inactive) | 52.7 µM (inactive) | > 100 µM (inactive) | 14.2 µM (inactive) |
| O=C1c2ccccc2CCCCCCCCCCC12OCCCO2 | 67.1 µM (inactive) | 28.8 µM (inactive) | 25.3 µM (inactive) | 25.4 µM (inactive) | 25.8 µM | 40.3 µM (inactive) | 26.4 µM (inactive) | 32.5 µM (inactive) | 57.1 µM (inactive) | 15.5 µM (inactive) | 10.6 µM (inactive) | 34.7 µM (inactive) | 58.1 µM (inactive) | 29.5 µM (inactive) | 25.6 µM (inactive) |  | 82.2 µM (inactive) |
| CC(C)Cc1ccc(C(C)C(=O)N2CCN(/C=C/c3ccccc3)CC2)cc1 (stereo not drawn) |  | 11.5 µM (inactive) | 13 µM (inactive) | 17.9 µM (inactive) | 13.8 µM | 13.2 µM (inactive) | 16.1 µM (inactive) | 12.9 µM (inactive) | 11.9 µM (inactive) | 5.04 µM (inactive) | 14.1 µM (inactive) | 15.9 µM (inactive) | 15.2 µM (inactive) | 2.79 µM (inactive) | 14 µM (inactive) |  | 13.4 µM (inactive) |
| O=c1cc[nH]c2c1ccc1ncccc12 | > 100 µM (inactive) | > 100 µM (inactive) | > 100 µM (inactive) | > 100 µM (inactive) | > 100 µM | > 100 µM (inactive) | > 100 µM (inactive) | > 100 µM (inactive) | > 100 µM (inactive) |  | > 100 µM (inactive) |  | > 100 µM (inactive) | > 100 µM (inactive) | > 100 µM (inactive) | > 100 µM (inactive) | > 100 µM (inactive) |
| CCOC(=O)C1=C(NC)OCC1=O | > 100 µM (inactive) | > 100 µM (inactive) | > 100 µM (inactive) | > 100 µM (inactive) | > 100 µM | > 100 µM (inactive) | > 100 µM (inactive) | > 100 µM (inactive) | > 100 µM (inactive) | > 100 µM (inactive) | > 100 µM (inactive) | > 100 µM (inactive) | > 100 µM (inactive) | > 100 µM (inactive) | > 100 µM (inactive) |  | > 100 µM (inactive) |
| CC(C)Cc1cccc(C(C)C)c1NC(=O)CCC(=O)N/N=C1\C(=N/NC(=O)CCC(=O)Nc2c(C(C)C)cccc2C(C)C)C(c2ccc3c(c2)OCO3)Oc2ccccc21 (stereo not drawn) |  | 65.3 µM (inactive) | 28.8 µM (inactive) | > 100 µM (inactive) | 17.1 µM | > 100 µM (inactive) | 27.9 µM (inactive) |  | 74.1 µM (inactive) | 59.2 µM (inactive) | 34.9 µM (inactive) | 48 µM (inactive) | 97.7 µM (inactive) | 91 µM (inactive) | 49.2 µM (inactive) | 55.7 µM (inactive) | 78.3 µM (inactive) |
| CCOc1ccc(C2=C(Cl)c3cc(OC)c(OC)cc3C2Cl)cc1 (stereo not drawn) |  |  | 25.2 µM (inactive) |  | 27.1 µM | 44.4 µM (inactive) | 29.3 µM (inactive) | 59 µM (inactive) |  | 21.3 µM (inactive) |  | 35 µM (inactive) | 29.8 µM (inactive) | > 100 µM (inactive) | 44.1 µM (inactive) |  | 26.2 µM (inactive) |
| CC12CCC(C(=O)N3CC=CCC3)(OC1=O)C2(C)C (stereo not drawn) |  | > 100 µM (inactive) | > 82.8 µM (inactive) | > 69 µM (inactive) | > 100 µM | > 100 µM (inactive) | > 100 µM (inactive) | > 100 µM (inactive) | > 100 µM (inactive) | > 100 µM (inactive) | > 100 µM (inactive) | > 100 µM (inactive) | > 100 µM (inactive) | > 100 µM (inactive) | > 100 µM (inactive) |  | > 100 µM (inactive) |
| O=C(CC(=O)c1ccccc1)CC(O)(c1ccccc1)c1ccccc1 |  |  | 3.37 µM (inactive) | 10.6 µM (inactive) | 4.89 µM | 3.37 µM (inactive) | 2.33 µM (inactive) | 4.84 µM (inactive) | 3.13 µM (inactive) | 4.05 µM (inactive) |  | 4.42 µM (inactive) |  | 3.92 µM (inactive) | 9.55 µM (inactive) | 2.88 µM (inactive) | 3.21 µM (inactive) |
| CCOC(=O)/C=C/n1c2ccccc2c(=O)c2cc(OC)ccc21 | > 100 µM (inactive) | > 100 µM (inactive) | 50.8 µM (inactive) | > 100 µM (inactive) | 39.9 µM | 57.1 µM (inactive) | > 100 µM (inactive) | > 100 µM (inactive) | > 100 µM (inactive) |  | > 100 µM (inactive) | > 100 µM (inactive) | > 100 µM (inactive) | 61.2 µM (inactive) | 51.5 µM (inactive) | 28.2 µM (inactive) | > 100 µM (inactive) |
| CCCCCCCSCC1OC(n2cnc3c(N)ncnc32)C(O)C1O (stereo not drawn) |  | 31.8 µM (inactive) | 39.4 µM (inactive) | 20.9 µM (inactive) | 4.5 µM | > 100 µM (inactive) | 16.5 µM (inactive) |  | 21.8 µM (inactive) | 12.6 µM (inactive) | > 100 µM (inactive) | 18.7 µM (inactive) | 32.7 µM (inactive) | 30.5 µM (inactive) | 24 µM (inactive) | 10 µM (inactive) |  |
